Experimental data as given in ChEMBL document CHEMBL3507680, “University of Dundee, Gates Library screen for HepG2 cell viability”.

Test: Human HepG2 cell viability assay in 384 well format
Format: toxicity, cell-based
Design: dose 125 nL, time 70.5 hour; concentration not given beside the values
Conditions: HepG2 cells, read-out: Inhibition

## COC(=O)CCN(C)Cc1cc(Br)cs1
  cytotoxicity at 70.5 h: -21.1%

## CC(C)c1noc(CCC(=O)N2CCSCC2)n1
  cytotoxicity at 70.5 h: -18.8%

## CCN(C(C)=O)C(c1ccc(Cl)cc1)c1ccccn1 (stereo not given)
  cytotoxicity at 70.5 h: -14.6%

## COCCC1(CNC(=O)Nc2ccnc(C)c2)CCCC1
  cytotoxicity at 70.5 h: -20.4%

## CC1CN(C)CCN1Cc1cccc(C(=O)NCc2ccco2)c1 (stereo not given)
  cytotoxicity at 70.5 h: 27.4%

## Cc1ccc(N2CCCC(N3CCC(CO)CC3)C2=O)cc1 (stereo not given)
  cytotoxicity at 70.5 h: 12.9%

## CCCN1CCC(C(=O)NCCN(CC)c2ccccc2C)CC1
  cytotoxicity at 70.5 h: 17.6%

## Cn1ncc2cnn(CC(O)COc3cccc4[nH]ccc34)c2c1=O (stereo not given)
  cytotoxicity at 70.5 h: 39.5%

## O=C(NCCCOCC1CC1)Nc1ccc(F)cc1
  cytotoxicity at 70.5 h: 0.857%

## COc1ccc(C)cc1NC(=O)CNc1ccn(CC(N)=O)n1
  cytotoxicity at 70.5 h: -9.21%

## CS(=O)(=O)N1CCN(C(=O)c2[nH]c3ccc(Cl)cc3c2Cl)CC1
  cytotoxicity at 70.5 h: -6.15%

## COc1cc(Cl)c(C)cc1NC(=O)CNc1ccn(CC(N)=O)n1
  cytotoxicity at 70.5 h: -7.27%

## CC(=O)N1CCN(C(=O)C(C)Nc2ccc3ncsc3c2)CC1 (stereo not given)
  cytotoxicity at 70.5 h: 0.285%

## CNC(=O)NC(=O)COc1c(C(C)=O)ccc(Cl)c1Cl
  cytotoxicity at 70.5 h: -9.38%

## CC(=O)c1ccc(Cl)c(Cl)c1OCC(=O)NC(C)C
  cytotoxicity at 70.5 h: -6.15%

## CNC(=O)COc1c(C(C)=O)ccc(Cl)c1Cl
  cytotoxicity at 70.5 h: -8.98%

## CC(=O)c1cccc(NC(=O)NCCOCC2CC2)c1
  cytotoxicity at 70.5 h: -6.67%

## O=C(NCc1ccco1)c1cccc(CN2CCCC2CO)c1 (stereo not given)
  cytotoxicity at 70.5 h: -8.88%

## CC(C(=O)NC1CC1)S(=O)(=O)c1cc2c(cc1Cl)OCCO2 (stereo not given)
  cytotoxicity at 70.5 h: -8.64%

## CCn1ccnc1SCCn1cnc2ccsc2c1=O
  cytotoxicity at 70.5 h: -10%

## CC(C)NC(=O)C(C)S(=O)(=O)c1cc2c(cc1Cl)OCCO2 (stereo not given)
  cytotoxicity at 70.5 h: -7.06%

## COc1cncc(N2CCN(Cc3ccncc3Cl)CC2)n1
  cytotoxicity at 70.5 h: -9.33%

## Cc1nsc(NCc2ccc(CS(=O)(=O)NC(C)C)cc2)n1
  cytotoxicity at 70.5 h: -9.39%

## Cn1cc(CNc2cnn(CC3CCCO3)c2)c(-c2ccncc2)n1 (stereo not given)
  cytotoxicity at 70.5 h: 4.43%

## Cc1ccc(C)c(OCC(O)Cn2ncc3cnn(C)c(=O)c32)c1 (stereo not given)
  cytotoxicity at 70.5 h: 6.69%

## Cc1nsc(NCc2ccc(S(=O)(=O)N(C)C(C)C)cc2)n1
  cytotoxicity at 70.5 h: 16.6%

## COC(=O)C1CCCCN1Cc1cccc(C(=O)NCc2ccco2)c1 (stereo not given)
  cytotoxicity at 70.5 h: -10.4%

## CC(C)OCCOCc1cccc(NC(=O)N2CCCC(O)C2)c1 (stereo not given)
  cytotoxicity at 70.5 h: -9.87%

## COc1ccc(CNC2CCN(c3ccccc3)C2)c(OC)c1OC (stereo not given)
  cytotoxicity at 70.5 h: 19.7%

## COc1cncc(N2CCN(Cc3ccco3)CC2)n1
  cytotoxicity at 70.5 h: -12.1%

## CCN(CCNC(=O)C1CCN(C(C)=O)CC1)c1ccccc1C
  cytotoxicity at 70.5 h: -12.4%

## CCc1nc(CN2CCN(C(=O)c3csc(C(C)C)n3)CC2)no1
  cytotoxicity at 70.5 h: 33.2%

## Cc1ccccc1CS(=O)(=O)CC(=O)N(C)Cc1cccc(F)c1
  cytotoxicity at 70.5 h: -6.34%

## Cc1noc(C)c1CS(=O)(=O)CC(=O)N(C)Cc1cccc(F)c1
  cytotoxicity at 70.5 h: -3.7%

## CC(=O)NC1(C(=O)N(C)Cc2c(C)noc2C)CCCCC1
  cytotoxicity at 70.5 h: 20.8%

## COc1ccccc1N1CCC(CNS(=O)(=O)c2cccs2)C1 (stereo not given)
  cytotoxicity at 70.5 h: -6.04%

## CC(C)C(=O)N1CCC(NCc2c(C(C)C)nn(C)c2N(C)C)CC1
  cytotoxicity at 70.5 h: -5.89%

## O=C1OCCN1CCCN1CCCC1c1ccc(O)cc1 (stereo not given)
  cytotoxicity at 70.5 h: -3.89%

## COC(=O)C(NC(=O)COC1CCCCC1)c1ccccc1 (stereo not given)
  cytotoxicity at 70.5 h: 5.11%

## CNC(=O)C(C)S(=O)(=O)Cc1csc(-c2cccs2)n1 (stereo not given)
  cytotoxicity at 70.5 h: -7.57%

## CCN1CCN(c2ccc(C(=O)NCCn3ccnc3)cc2F)CC1
  cytotoxicity at 70.5 h: -3.77%

## CN(C(=O)CN1CCc2nn(C)c(=O)cc2C1)c1nccs1
  cytotoxicity at 70.5 h: -4.13%

## CCCn1nc2c(cc1=O)CN(CC(=O)N(C)c1nccs1)CC2
  cytotoxicity at 70.5 h: -4.23%

## Cc1cc(C(=O)NS(=O)(=O)Cc2ccon2)c(C)n1C(C)C
  cytotoxicity at 70.5 h: -4.61%

## CNC(=O)C1CCCN(C(=O)NCCC2Cc3ccccc3C2)C1 (stereo not given)
  cytotoxicity at 70.5 h: -1.76%

## Cc1cc(C(=O)NS(=O)(=O)Cc2ccon2)c(C)o1
  cytotoxicity at 70.5 h: -3.93%

## COCc1nc(C(=O)N2CCN(Cc3ccsc3)CC2)cs1
  cytotoxicity at 70.5 h: -0.448%

## COCCN1CCC(NCc2c(C(C)C)nn(C)c2N(C)C)CC1
  cytotoxicity at 70.5 h: 24.2%

## CC(C)c1nn(C)c(N(C)C)c1CNC1CCN(CC2CC2)CC1
  cytotoxicity at 70.5 h: 0.338%

## c1cc(CN2CCSC3(CCCCC3)C2)no1
  cytotoxicity at 70.5 h: -1.3%

## c1cc(CN2CCOC3(CCCC3)C2)no1
  cytotoxicity at 70.5 h: -2.72%

## COc1ccccc1N1CCC(CNCc2c(C)nn(C)c2OC)C1 (stereo not given)
  cytotoxicity at 70.5 h: 0.53%

## CC(=O)N1CCCN(C(C)c2ccc(Br)cc2)CC1 (stereo not given)
  cytotoxicity at 70.5 h: 17.2%

## CCCc1nc(CNC2(c3nccs3)CCCC2)cs1
  cytotoxicity at 70.5 h: 4.59%

## c1cc(CN2CCCC2)ccc1CNc1cncc2nnnn12
  cytotoxicity at 70.5 h: -4.34%

## c1cc(N2CCSCC2)ccc1CNc1cncc2nnnn12
  cytotoxicity at 70.5 h: -12.4%

## c1ccc(CN2CCCC2)c(CNc2cncc3nnnn23)c1
  cytotoxicity at 70.5 h: -7.51%

## CN(CC(N)=O)C(=O)c1csc(Br)c1
  cytotoxicity at 70.5 h: -7.59%

## CC(C)(NC(=O)c1ccc(-c2ccccc2F)s1)C(N)=O
  cytotoxicity at 70.5 h: 12.6%

## COc1cccc(CN(C)S(=O)(=O)N2CCOCC2)c1
  cytotoxicity at 70.5 h: 2.16%

## CS(=O)(=O)NCC1CCCN(C(=O)Nc2cccnc2N2CCCC2)C1 (stereo not given)
  cytotoxicity at 70.5 h: -0.725%

## CS(=O)(=O)NCC1CCCN(C(=O)Nc2ccccc2Cl)C1 (stereo not given)
  cytotoxicity at 70.5 h: 1.65%

## O=C(NCc1ccc(OCC2CC2)nc1)c1c(F)cccc1F
  cytotoxicity at 70.5 h: -3.71%

## CN(Cc1cnn(C)c1)C(=O)c1ccc(=O)n(C)n1
  cytotoxicity at 70.5 h: -1.81%

## CS(=O)(=O)NCC1CCCCN1C(=O)Nc1cccnc1N1CCCC1 (stereo not given)
  cytotoxicity at 70.5 h: 39.8%

## Cc1ccc(S(=O)(=O)NC(=O)c2c(C)noc2C(C)C)cc1C
  cytotoxicity at 70.5 h: 0.282%

## Cc1cc(C2CCCN(C(=O)c3c(C)noc3C)C2)n[nH]1 (stereo not given)
  cytotoxicity at 70.5 h: -5.28%

## CC(NC(=O)c1nc(=O)[nH][nH]1)c1ccc(OCC2CC2)c(F)c1 (stereo not given)
  cytotoxicity at 70.5 h: 29.1%

## COCCn1ccc(NC(=O)Nc2ccc(C(N)=O)c(F)c2)n1
  cytotoxicity at 70.5 h: 13.6%

## COCC(=O)N(C)Cc1cccc(Cl)c1
  cytotoxicity at 70.5 h: 38.1%

## CN1N=C(C(=O)N(Cc2ccco2)C2CC2)CCC1=O
  cytotoxicity at 70.5 h: -9.82%

## CCOc1nnc(CN(C)C2CCCN(c3cccnn3)C2)s1 (stereo not given)
  cytotoxicity at 70.5 h: 3.52%

## CC1CN(CC(=O)NC(=O)NCc2ccccc2)CCO1 (stereo not given)
  cytotoxicity at 70.5 h: 7.19%

## CC(COc1ccc(F)cc1F)NC(=O)NCCN1CCOCC1 (stereo not given)
  cytotoxicity at 70.5 h: -16%

## CCc1noc(C(C)N2CCN(c3ccc(C#N)cc3F)CC2)n1 (stereo not given)
  cytotoxicity at 70.5 h: -24.4%

## Cc1cc(N2CCN(CC(=O)N(C)C)CC2)nc(-c2ccncc2)n1
  cytotoxicity at 70.5 h: 27.8%

## NC(=O)C(CNC(=O)Cc1ccc(F)cc1)Cc1ccc(F)cc1 (stereo not given)
  cytotoxicity at 70.5 h: -7.46%

## CCn1cnnc1C1CCN(C(=O)c2ccc3cc[nH]c3c2)CC1
  cytotoxicity at 70.5 h: 5.48%

## Cc1cc(N2CCN(CCO)CC2)nc(-c2ccncc2)n1
  cytotoxicity at 70.5 h: 0.374%

## CC(C)NC(=O)Nc1ccc(CS(=O)(=O)C(C)(C)C)cc1
  cytotoxicity at 70.5 h: -12.3%

## CCOC(=O)c1c(NC(=O)CN2CCN(C(C)=O)CC2)sc2c1CCC2
  cytotoxicity at 70.5 h: -0.965%

## CCc1nc2n(n1)CC(NCc1nc(C)ccc1O)CC2 (stereo not given)
  cytotoxicity at 70.5 h: -8.85%

## Cc1ccc(CC2CCCN2CC(=O)NCc2ccccn2)cc1 (stereo not given)
  cytotoxicity at 70.5 h: 15.4%

## CCOc1cccc(C(=O)NCCC(=O)Nc2ccncc2)c1
  cytotoxicity at 70.5 h: -19.4%

## CC(C)c1nn(C)c(N(C)C)c1CNC1CCN(C2CC2)CC1
  cytotoxicity at 70.5 h: -2.94%
